Results published in patent US20160030416A1, “METHODS OF TREATING B2-BRADYKININ RECEPTOR MEDIATED ANGIOEDEMA” (SHIRE HUMAN GENETIC THERAPIES, INC., priority 2013, published 2016).
In brackets after ≈: the same amount, converted by molar mass.

Legend:
[1] = Physicochemical properties of CFMQ
Procedure: The physicochemical properties of 1-((4-Chloro-3-(((4-(4-fluoro-1H-pyrazol-1-yl)-2-methylquinolin-8-yl)oxy)methyl)-6-methylpyridin-2-yl)methyl)-2-oxo-1,2-dihydropyridine-3-carbonitrile (CFMQ) were determined using standard methods. CFMQ was a free base with a molecular weight of 514.9 Da and was a nonhygroscopic, crystalline powder with a melting point of about 214° C.

[2] = Bidirectional permeability in Caco-2 cells; format: in vitro ADME, human; details: human, 5 μM, 120 minutes
Procedure: (§1) To determine bidirectional permeability, CFMQ was examined in an in vitro incubation assay with […] (Caco-2 cell). CFMQ at 5 μM was dosed to the cell monolayers on the apical side (A-to-B) or basolateral side (B-to-A) and incubated at 37° C. with 5% CO2 for 120 minutes. Permeability of Lucifer Yellow (500 μM) was measured to ensure no damage was inflicted to the cell monolayers during the CFMQ flux period. All samples were assayed by LC-MS/MS using electrospray ionization.

Caco-2 cell = assay: Bidirectional permeability in Caco-2 cells; format: in vitro ADME, human
Procedure: as §1

[3] = Pharmacokinetics, single oral gavage, Yucatan mini-pig; format: in vivo, female Yucatan Miniature Swine; details: PO 10 mg/kg
Procedure: CFMQ (HGT3711) was administered to female Yucatan Miniature Swine (mini-pig; n=3) by a single oral gavage at 10 mg/kg (concentration 2 mg/mL) at a dose volume of […]. This study utilized the spray-dried dispersion (SDD) (50; 50 with polymer; HPMCAS) formulation of CFMQ (HGT3711) (see below). Blood samples were taken via jugular or other suitable vein puncture prior to administration and at 0.083 (5 min), 0.25 (15 min), 0.50 (30 min), 1, 2, 4, 8, 12 and 24 hours post dose. Plasma concentrations of CFMQ (HGT3711) were determined by LC-MS/MS.

[4] = In vitro microsomal stability, mouse; format: in vitro ADME; details: Mouse (CD-1), Male
Procedure: (§2) In vitro metabolic stability studies were performed to determine hepatic stability in vivo. CFMQ was incubated in liver microsomal preparations from mouse, rat, dog, mini-pig, and humans, as well as an additional study with monkey and human. CFMQ was incubated with human and animal liver microsomes at 0.3 mg/mL at 37° C. for 30 or 60 minutes. Additional reference compounds were incubated as controls. Following incubation, samples were analyzed by HPLC-MS/MS.

[5] = In vitro microsomal stability, rat; format: in vitro ADME; details: Rat (Wistar)
Procedure: as §2

[6] = In vitro microsomal stability, human; format: in vitro ADME; details: Mix
Procedure: as §2

[7] = Extrapolation of human oral dose by allometric scaling and pharmacokinetic simulation; details: human equivalent dose of 0.8 mg/kg
Procedure: A pharmacokinetic extrapolation for a human oral dose was performed using allometric scaling of clearance and volume of distribution. The human pharmacokinetic values were extrapolated from in vivo mouse, rat, dog and monkey pharmacokinetic studies. […] This model was based on the assumption that all of the clearance pathways in the human were captured in the pre-clinical species.

[8] = molecular target: T1, human B2-bradykinin receptor (Homo sapiens, UniProt P30411); assay: Calcium mobilization assay in human fibroblast (HF15) cells; format: cell-based; set-up: endogenous in cells; host or cells: HF15 human fibroblasts; details: 25 minutes pre-incubation at 25° C., read-out: IC50, inhibition of bradykinin-induced calcium mobilization
T1 sequence (P30411 1-391): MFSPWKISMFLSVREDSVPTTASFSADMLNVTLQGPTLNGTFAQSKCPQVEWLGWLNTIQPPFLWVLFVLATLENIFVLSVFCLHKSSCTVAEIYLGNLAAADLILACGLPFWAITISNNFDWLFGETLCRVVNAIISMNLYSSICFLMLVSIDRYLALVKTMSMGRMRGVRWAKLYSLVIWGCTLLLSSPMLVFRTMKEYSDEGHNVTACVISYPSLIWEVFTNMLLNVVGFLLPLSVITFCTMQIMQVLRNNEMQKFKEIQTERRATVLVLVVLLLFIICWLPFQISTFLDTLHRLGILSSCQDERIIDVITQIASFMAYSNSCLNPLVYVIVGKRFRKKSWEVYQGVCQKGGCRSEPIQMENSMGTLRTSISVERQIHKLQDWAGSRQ
Procedure: CFMQ was formulated as a 5 nM stock solution in 100% DMSO and serially diluted to 0.04, 0.12, 0.37, 1.11, 3.33, 10 and 30 nM. Human fibroblast (HF15) cells, which express the human B2R were loaded with 100 μL calcium dye solution containing 2.5 mM probenicide and were then pre-incubated with CFMQ for 25 minutes at 25° C. The inhibition effect of CFMQ on bradykinin-mediated calcium mobilization was tested in this system by emission of fluorescence signals, using the height of the resulting peak over the baseline value (relative fluorescence units [RFU] max-min). The percent inhibition for each concentration was used for curve fit and IC50 calculation.

[9] = female, Yucatan, minipig, plasma

Cc1cc(Cl)c(COc2cccc3c(-n4cc(F)cn4)cc(C)nc23)c(Cn2cccc(C#N)c2=O)n1 [CFMQ, 1-((4-Chloro-3-(((4-(4-fluoro-1H-pyrazol-1-yl)-2-methylquinolin-8-yl)oxy)methyl)-6-methylpyridin-2-yl)methyl)-2-oxo-1,2-dihydropyridine-3-carbonitrile]
pKa1 [1]: 3.95
pKa2 [1]: 1.70
solubility in acidic environments ([1]; acidic environments): greatly enhanced
solubility in aqueous medium ([1]; aqueous medium): slight solubility
logD ([1]; pH = 7.4): 3.47
solubility ([1]; phosphate buffered saline (PBS), aqueous buffer): 33 µM (≈ 17 µg/mL)
Papp A→B at 120 min, 5 μM ([2]; apical to basolateral, read-out: permeability coefficient A-to-B): 34 ×10⁻⁶ cm/s
Papp B→A at 120 min, 5 μM ([2]; basolateral to apical, read-out: permeability coefficient B-to-A): 38 ×10⁻⁶ cm/s
efflux (Caco-2 cell): no significant efflux
permeability classification (Caco-2 cell): highly permeable
clinical observations ([3]; mini-pig): no abnormal clinical observations
AUC(0-inf) [3, 9]: 11100 ng·h/mL
AUC(0-t) [3, 9]: 10600 ng·h/mL
half-life [3, 9]: 57 h
concentration at 4 hr ([3]; female, Yucatan, pig (miniature swine), plasma, 4.0 hr, read-out: Average Concentration of HGT3711): 1150 ng/mL
concentration at 8 hr ([3]; female, Yucatan, pig (miniature swine), plasma, 8.0 hr, read-out: Average Concentration of HGT3711): 284 ng/mL
concentration at 12 hr ([3]; female, Yucatan, pig (miniature swine), plasma, 12 hr, read-out: Average Concentration of HGT3711): 112 ng/mL
concentration at 24 hr ([3]; female, Yucatan, pig (miniature swine), plasma, 24 hr, read-out: Average Concentration of HGT3711): 14.2 ng/mL
concentration at 0 hr ([3]; female, Yucatan, pig (minipig), plasma, 0 hr, read-out: Average Concentration of HGT3711): 0 ng/mL
concentration at 0.25 hr ([3]; female, Yucatan, pig (minipig), plasma, 0.25 hr, read-out: Average Concentration of HGT3711): 80 ng/mL
concentration at 0.5 hr ([3]; female, Yucatan, pig (minipig), plasma, 0.5 hr, read-out: Average Concentration of HGT3711): 596 ng/mL
concentration at 1 hr ([3]; female, Yucatan, pig (minipig), plasma, 1.0 hr, read-out: Average Concentration of HGT3711): 1560 ng/mL
concentration at 2 hr ([3]; female, Yucatan, pig (minipig), plasma, 2.0 hr, read-out: Average Concentration of HGT3711): 2060 ng/mL
% Remaining [30 minutes] ([4]; 30 minutes): 7%
% Remaining [60 minutes] ([4]; 60 minutes): 3%
% Remaining [30 minutes] ([5]; Female): 76%
% Remaining [60 minutes] ([5]; Female): 60%
% Remaining [30 minutes] ([5]; Male): 3%
% Remaining [60 minutes] ([5]; Male): 0%
% Remaining [30 minutes] ([6]; 30 minutes): 70-91%
% Remaining [60 minutes] ([6]; 60 minutes): 50-85%
time plasma levels stay above the predicted efficacious levels ([7]; bioavailability 25%): greater than 5 hours
time plasma levels stay above the predicted efficacious levels ([7]; bioavailability 50%): > 10 h
time plasma levels stay above the predicted efficacious levels ([7]; bioavailability 75%): > 12 h
IC50 [8]: 2.97 nM
